Results taken from paper PMC9231011, “Irreversible Antagonists for the Adenosine A2B Receptor” (Molecules, 2022).

Tests used:
[1] = molecular target: T1, human A1AR (Homo sapiens, UniProt P30542); assay: Competitive radioligand binding vs [3H]CCPA; conditions: for Ki: apparent Ki for irreversibly binding ligands, three independent experiments, read-out: A1AR vs. Radioligand [3H]CCPA Ki ± SEM
T1 construct: purchased Perkin Elmer ES-010-M400UA
T1 sequence (P30542 1-326): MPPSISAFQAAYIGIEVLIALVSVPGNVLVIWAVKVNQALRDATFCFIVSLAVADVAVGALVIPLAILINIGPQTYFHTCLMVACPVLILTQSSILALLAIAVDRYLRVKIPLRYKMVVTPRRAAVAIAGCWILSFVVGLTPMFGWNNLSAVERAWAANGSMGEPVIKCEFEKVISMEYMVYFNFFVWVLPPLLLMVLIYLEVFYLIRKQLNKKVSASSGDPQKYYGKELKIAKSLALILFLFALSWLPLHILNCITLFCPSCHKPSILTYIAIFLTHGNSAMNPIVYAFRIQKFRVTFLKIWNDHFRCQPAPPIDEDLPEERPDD
Text: (§1) The potentially irreversible xanthine derivatives were investigated for their binding affinity at human A2BARs and for their selectivity versus the other human AR subtypes, A1, A2A, and A3, by competitive radioligand binding experiments.
(§2) The human A2AAR, the mutant human A2BAR (K269^7.32L), and the human A3AR were transiently expressed in FreeStyle^TM CHO-S cells using the transfection reagent polyethylenimine (PEI) at a ratio of 1:3 to DNA according to the manufacturer’s guideline. pcDNA3.1(+) was used as the transfection vector containing the cDNA for either the wt ARs or the K269^7.32L mutant A2BAR that was prepared by site-directed mutagenesis with the following primer: forward […], reverse […]. CHO-S cells were grown in FreeStyle^TM CHO Expression Medium supplemented with 8 mM L-glutamine before use and split to 0.5 mio. cells per mL the day before transfection. Twenty-four hours after transfection, cells were spun down by centrifugation for 15 min at 500× g. Cells were disrupted by resuspension in 5 mM tris(hydroxymethyl)aminomethane buffer (Tris, pH 7.4) containing 2 mM ethyl-ene¬diaminetetraacetic acid (EDTA) with subsequent homogenization using an Ultra-Turrax homogenizer. The cell suspension was centrifuged for 10 min at 1000× g and the obtained supernatant was pelleted by centrifugation for 60 min at 48,000× g. The supernatant was discarded and the pellet washed with 50 mM Tris (pH 7.4). After centrifugation for at least 30 min at 48,000× g, the pellet was resuspended in 50 mM Tris (pH 7.4), aliquoted and stored at −80 °C for further use. All centrifugation steps were carried out at 4 °C. Membrane preparations of the human wt A1AR and the human wt A2BAR were purchased from Perkin Elmer (Perkin-Elmer, Waltham, MA, USA) (catalogue numbers ES-010-M400UA and ES-013-M400UA).
(§3) Binding experiments were performed using 50 mM Tris buffer (pH 7.4) in a total volume of 400 µL for the A1AR, A2AAR, A3AR, and 1000 µL for the A2BAR. Initial screening was carried out in two independent experiments at 1 µM. Competition of compounds versus [^3H]CCPA (A1AR, final concentration 1 nM), [^3H]MSX-2 (A2AAR, final concentration 1 nM), [^3H]PSB-603 (A2BAR, final concentration 0.3 nM) and [^3H]PSB-11 (A3AR, final concentration 1 nM) was investigated. An amount of 7.5–25 µg of total protein per well was employed, incubated with 2 U of adenosine deaminase per mL beforehand. Non-specific binding was determined in the presence of 10 µM of 2-chloroadenosine, 10 µM of CGS 15943, 10 µM of 8-cyclopently-1,3-dipropylxanthine or 100 µM of (R)-N^6-phenylisopropyadenosine for A1-, A2A-, A2B- and A3ARs, respectively. Competition association experiments (at 25 °C) were performed in the same way but the protein was added delayed at indicated time points and the cell membranes were harvested after 1 min. Incubation was terminated by rapid filtration through GF/B glass fiber filters (Whatman) using a 48-well harvester (Brandel) after 90 (A1AR), 30 (A2AAR), 75 (A2BAR), and 45 min (A3AR) of incubation, respectively. Filters were pre-incubated with 0.3% (w/v) of PEI for 30–60 min in case of the A2AAR assay. Filters were rinsed three times with ice-cold 50 mM Tris, pH 7.4 (supplemented with 0.1% (w/v) bovine serum albumin for the A2BAR) and transferred into scintillation vials. Filters were then incubated with 2.5 mL of scintillation cocktail (ProSafe FC plus) for at least 6 h. Subsequently, radioactivity was determined using a liquid scintillation counter (Tricarb 2810TR, Perkin Elmer).

[2] = molecular target: T2, A2BAR (Homo sapiens, UniProt P29275); assay: Competitive radioligand binding vs [3H]PSB-603; parameters: purchased Perkin Elmer ES-013-M400UA
T2 sequence (P29275 1-332): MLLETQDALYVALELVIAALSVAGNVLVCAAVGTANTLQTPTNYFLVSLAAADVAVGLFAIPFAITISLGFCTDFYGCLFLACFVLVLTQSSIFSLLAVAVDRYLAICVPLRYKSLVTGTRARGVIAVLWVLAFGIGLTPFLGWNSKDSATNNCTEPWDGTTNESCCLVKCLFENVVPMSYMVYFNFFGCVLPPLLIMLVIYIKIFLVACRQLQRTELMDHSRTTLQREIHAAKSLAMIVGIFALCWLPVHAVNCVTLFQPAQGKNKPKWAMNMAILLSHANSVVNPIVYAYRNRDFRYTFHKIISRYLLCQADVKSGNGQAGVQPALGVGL
Text: as §1, §2, §3

Row | Compound | Ki [1] [nM] | Ki [2] [nM] | A2B selectivity versus the A1AR ([2]; from Ki values) [fold] | A2B selectivity versus the other AR subtypes ([2]; from Ki values) | Potency difference at A2BAR versus PSB-1115 ([2]; more potent than PSB-1115) [fold] | A1AR vs. Radioligand [3H]CCPA % inhibition at 1 µM ([1]; 1 µM) [%]
1 | CCCn1c(=O)[nH]c2nc(-c3ccc(S(=O)(=O)F)cc3)[nH]c2c1=O [6a, 4-(2,6-Dioxo-1-propyl-2,3,6,7-tetrahydro-1H-purin-8-yl)benzenesulfonyl fluoride] | 406 ± 194 | 10.6 ± 0.9 | 38 | > 38 fold | 14 | –
2 | CCCn1c(=O)c2[nH]c(-c3ccc(S(=O)(=O)F)cc3)nc2n(C2CC2)c1=O [6c, 4-(3-Cyclopropyl-2,6-dioxo-1-propyl-2,3,6,7-tetrahydro-1H-purin-8-yl)benzenesulfonyl fluoride] | 41.5 ± 2.8 | 26 ± 2.8 | – | – | – | –
3 | CCCn1c(=O)[nH]c2nc(-c3ccc(S(=O)(=O)N4CCC(NC(=O)c5ccc(S(=O)(=O)F)cc5)CC4)cc3)[nH]c2c1=O [compound 12, 4-((1-((4-(2,6-Dioxo-1-propyl-2,3,6,7-tetrahydro-1H-purin-8-yl)phenyl)sulfonyl)piperidin-4-yl)carbamoyl)benzenesulfonyl fluoride] | > 1000 | 7.37 ± 0.83 | – | more than two orders of magnitude | – | 22
4 | CCCn1c(=O)c2[nH]c(-c3ccc(S(=O)(=O)F)cc3)nc2n(C)c1=O [6b, 4-(3-Methyl-2,6-dioxo-1-propyl-2,3,6,7-tetrahydro-1H-purin-8-yl)benzenesulfonyl fluoride] | 293 ± 92 | 15.9 ± 1 | – | > 18 fold | – | –
